# Source: patent US20120276208A1, “ACUTE COGNITIVE AND MOOD EFFECTS OF PLANT POLYSACCHARIDES IN ADULT HUMAN SUBJECTS” (UNIVERSITY OF SOUTH AUSTRALIA, priority 2011, published 2012)
# Legend:
# [1] = tested on: healthy middle-aged men and women; assay: Rey Auditory-Verbal Learning Test (RAVLT), learning and memory; format: in vivo, human; settings: 4 g oral single dose; mean (SD)
# Protocol: Procedure: Each participant attended the research facility on a single day for a period of 3.5 hours during which they completed 2 testing sessions, 1 baseline test and 1 post-treatment test. All testing took place between 08:00-12:00 and 13:00-18:00. On testing days, participants abstained from consuming any stimulants (i.e., tea, coffee, other caffeine containing products) for 2 hours before their visit. All volunteers were fasted for 2 hours before their visit. Each study day comprised of a practice module, a pre-treatment baseline testing session on the mood and cognitive measures, this was immediately followed by a pre-treatment blood glucose measurement, and administration of treatment. Participants were allocated, using a random number generator randomization code, to one of three treatment conditions: sucrose (icing sugar), placebo (rice flour) and plant saccharides (Ambrotose®Complex). Given the different densities of the three supplement conditions, each treatment was weighed and measured with scoop amounts to provide equated 4 g doses. The supplement was delivered to each participant on a tablespoon with 100 ml of water. Each participant was instructed by the inventors to carefully consume the powder, without breathing in or out over it, by putting it in their mouth and washing it down with the water provided within 5 minutes. Additional water was provided on request. Participants were then instructed to rest for 30 minutes to allow for absorption. Following the 30 minute absorption time, a finger-capillary blood glucose measurement was taken. The post treatment testing session then commenced with alternate forms of the RAVLT and Cognitive demand battery. Following completion of the testing session, a final blood glucose measurement was taken. […] Learning and Memory: The Rey Auditory-Verbal Learning Test (RAVLT) was used to assess immediate recall, delayed recall, learning and recognition memory. The examiner reads aloud 15 nouns (list A) over five trials and after each trial, participants are asked to recall, in any order, as many of the 15 words as possible. Scores for the 5 trials are summed to produce a measure of immediate recall, the difference between trial 5 and 1 is used as a measure of learning. After a sixth trial consisting of 15 different words (list B) participants are again required to recall the words that were presented in list A (trial 7), and then again after an interval of 60 minutes (trial 8). The scores from trials 7 and 8 are used to produce a measure of delayed recall, the difference between the words recalled in trials 8 and 7 is used as a measure of forgetting, the difference between trial 7 and trial 5 is used as a score of interference. After trial 8, participants are presented with a sheet of 50 words containing the words from lists A and B among 20 distracter words. Participants are asked to recognize the words from lists A and B and indicate the list they came from. Each word correctly identified is awarded one point producing a measure of recognition. Statistical Analysis: The primary outcomes were memory performance, mood and performance on the Cognitive Demand Battery (CDB) and the subjective ratings of mental fatigue. All data were analyzed using SPSS 17 statistical package as “change from pre dose baseline scores', using Analysis of Variance (ANOVA). To test for chance baseline differences which may have skewed change-from-baseline scores, prior to the primary statistical analysis, one-way ANOVA's with Bonferroni correction, were run all on all baseline demographics, general mood and well-being measures, and all pre-dose baseline measures to determine any potential covariates in outcomes.
# [2] = tested on: healthy middle-aged men and women; assay: Cognitive Demand Battery: Serial Sevens subtraction task; format: in vivo, human; settings: 4 g oral; at 20 min of battery; vs placebo
# Protocol: Procedure: Each participant attended the research facility on a single day for a period of 3.5 hours during which they completed 2 testing sessions, 1 baseline test and 1 post-treatment test. All testing took place between 08:00-12:00 and 13:00-18:00. On testing days, participants abstained from consuming any stimulants (i.e., tea, coffee, other caffeine containing products) for 2 hours before their visit. All volunteers were fasted for 2 hours before their visit. Each study day comprised of a practice module, a pre-treatment baseline testing session on the mood and cognitive measures, this was immediately followed by a pre-treatment blood glucose measurement, and administration of treatment. Participants were allocated, using a random number generator randomization code, to one of three treatment conditions: sucrose (icing sugar), placebo (rice flour) and plant saccharides (Ambrotose®Complex). Given the different densities of the three supplement conditions, each treatment was weighed and measured with scoop amounts to provide equated 4 g doses. The supplement was delivered to each participant on a tablespoon with 100 ml of water. […] All data were analyzed using SPSS 17 statistical package as “change from pre dose baseline scores', using Analysis of Variance (ANOVA). […]
smiles,measurement,setting,value
"OC[C@H]1O[C@@](CO)(O[C@H]2O[C@H](CO)[C@@H](O)[C@H](O)[C@H]2O)[C@@H](O)[C@@H]1O [Sucrose, sucrose]","RAVLT Forgetting (trial 8-trial7), post-dose change from baseline score",[1],−1.69 (3.06)
same,"RAVLT Interference (trial 7-trial 5), post-dose change from baseline score",[1],−1.34 (2.18)
same,"RAVLT Learning (trial 5-trial1), post-dose change from baseline score",[1],0.07 (2.78)
same,"RAVLT Recog A, post-dose change from baseline score",[1],−2.38 (2.46)
same,"RAVLT Recog B, post-dose change from baseline score",[1],−3.38 (3.55)
same,"RAVLT Sum Immediate Recall, post-dose change from baseline score",[1],−1.88 (5.83)
same,"RAVLT Sum Recognition, post-dose change from baseline score",[1],−5.76 (4.91)
same,"RAVLT Sum delayed recall, post-dose change from baseline score",[1],−4.76 (4.18)
same,"RAVLT Trial 1, post-dose change from baseline score",[1],−0.26 (2.23)
same,"RAVLT Trial 2, post-dose change from baseline score",[1],−0.57 (2.13)
same,"RAVLT Trial 3, post-dose change from baseline score",[1],−0.42 (1.83)
same,"RAVLT Trial4, post-dose change from baseline score",[1],−0.42 (1.72)
same,"RAVLT Trial 5, post-dose change from baseline score",[1],−0.19 (1.72)
same,"RAVLT Trial 6 (List B), post-dose change from baseline score",[1],−0.84 (2.16)
same,"RAVLT Trial 7, post-dose change from baseline score",[1],−1.53 (2.37)
same,"RAVLT Trial 8, post-dose change from baseline score",[1],−3.23 (2.80)
same,"Serial 7s number of correct answers, pairwise comparison",[2],making significantly more correct responses than the placebo group (p=0.04)
